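Five concentrations, 48 hours, 96-well plates. GI50 is the concentration that inhibits growth by half.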 Active and inactive are the calls of the source. Rule as the data show it: active = GI50 up to about 1.1 µM and inactive = higher.
Columns and labels:
Test in all cases: growth of human tumour cells (NCI), 48 h
A549 = system: A549
CAKI-1 = system: CAKI-1
CCRF-CEM = system: CCRF-CEM
DLD-1 = system: DLD-1
DMS-114 = system: DMS-114
EKVX = system: EKVX
HCT-116 = system: HCT-116
HCT-15 = system: HCT-15
KM-20L2 = system: KM-20L2
MOLT-4 = system: MOLT-4
Malme-3M = system: Malme-3M
OVCAR-3 = system: OVCAR-3
SF-295 = system: SF-295
SF-539 = system: SF-539
SK-MEL-5 = system: SK-MEL-5
SNB-75 = system: SNB-75
UACC-257 = system: UACC-257
SR = system: SR

| SMILES | GI50 (A549) | GI50 (CAKI-1) | GI50 (CCRF-CEM) | GI50 (DLD-1) | GI50 (DMS-114) | GI50 (EKVX) | GI50 (HCT-116) | GI50 (HCT-15) [µM] | GI50 (KM-20L2) | GI50 (MOLT-4) | GI50 (Malme-3M) | GI50 (OVCAR-3) | GI50 (SF-295) | GI50 (SF-539) | GI50 (SK-MEL-5) | GI50 (SNB-75) | GI50 (UACC-257) | GI50 (SR) |
| --- | --- | --- | --- | --- | --- | --- | --- | --- | --- | --- | --- | --- | --- | --- | --- | --- | --- | --- |
| CCOP(=O)(OCC)C1CCCCOC1=O (configuration not stated) | > 100 µM (inactive) | > 100 µM (inactive) | 76.7 µM (inactive) | > 100 µM (inactive) | > 100 µM (inactive) | > 100 µM (inactive) | > 100 µM (inactive) | > 100 | > 100 µM (inactive) | 33 µM (inactive) | > 100 µM (inactive) | > 100 µM (inactive) | > 100 µM (inactive) | > 100 µM (inactive) | > 100 µM (inactive) | > 100 µM (inactive) | > 100 µM (inactive) |  |
| CC1=C(C(=O)CC(=O)C(=O)Nc2ccccc2)Sc2ccccc2N1 | > 100 µM (inactive) |  | > 100 µM (inactive) | > 100 µM (inactive) | > 100 µM (inactive) | > 100 µM (inactive) | > 100 µM (inactive) | > 100 | > 100 µM (inactive) | > 100 µM (inactive) | > 100 µM (inactive) | > 100 µM (inactive) | > 100 µM (inactive) | > 100 µM (inactive) | > 100 µM (inactive) |  | > 100 µM (inactive) |  |
| O=C(Cn1ccnc1[N+](=O)[O-])NCc1ccc(F)cc1 | > 100 µM (inactive) | > 100 µM (inactive) | > 100 µM (inactive) |  | > 100 µM (inactive) | > 100 µM (inactive) |  | > 100 | > 100 µM (inactive) | > 100 µM (inactive) | > 100 µM (inactive) | 33.5 µM (inactive) | > 100 µM (inactive) | > 100 µM (inactive) | > 100 µM (inactive) | 68.9 µM (inactive) | > 100 µM (inactive) |  |
| O=C(/C=C/c1ccc(Cl)c(Cl)c1)c1ccc(F)cc1 | 42.8 µM (inactive) | 18.5 µM (inactive) | 4.42 µM (inactive) | 14.4 µM (inactive) | 14.7 µM (inactive) | 27.4 µM (inactive) | 7.67 µM (inactive) | 10.2 | 16.5 µM (inactive) | 15.8 µM (inactive) | 34.3 µM (inactive) | 18.6 µM (inactive) | 20.2 µM (inactive) | 20.8 µM (inactive) | 19.9 µM (inactive) | 22.9 µM (inactive) | 23.8 µM (inactive) |  |
| Cc1cc2c(cc1C)[n+]([O-])c(C(=O)CC(=O)C(=O)Nc1c(C(C)C)cccc1C(C)C)c(C)[n+]2[O-] | > 100 µM (inactive) | > 100 µM (inactive) | > 100 µM (inactive) |  | > 100 µM (inactive) | > 100 µM (inactive) | > 100 µM (inactive) | > 100 | > 100 µM (inactive) | > 100 µM (inactive) | > 100 µM (inactive) | > 100 µM (inactive) | > 100 µM (inactive) | > 100 µM (inactive) | > 100 µM (inactive) | > 100 µM (inactive) | > 100 µM (inactive) | > 100 µM (inactive) |
| C=CCCCCCCCCCP(=O)(c1ccccc1)c1ccc2c(c1)OCCOCCOCCOCCO2 (configuration not stated) | 14.6 µM (inactive) | > 100 µM (inactive) | 16.5 µM (inactive) | 13.6 µM (inactive) |  | 19.6 µM (inactive) | 10.4 µM (inactive) | 13.8 | 14.1 µM (inactive) | 9.75 µM (inactive) | 17.7 µM (inactive) | 7.08 µM (inactive) | 15.2 µM (inactive) | 17.3 µM (inactive) | 11.3 µM (inactive) | 18.5 µM (inactive) | 16.7 µM (inactive) | 7.16 µM (inactive) |
| CC1C(O)=C(O)c2ccccc2N1O (configuration not stated) | > 100 µM (inactive) | > 100 µM (inactive) | 47.3 µM (inactive) | > 100 µM (inactive) |  | > 100 µM (inactive) | 49.8 µM (inactive) | 96.6 | > 100 µM (inactive) | 77.6 µM (inactive) | > 100 µM (inactive) | > 100 µM (inactive) | > 100 µM (inactive) | > 100 µM (inactive) | > 100 µM (inactive) | > 100 µM (inactive) | 83.2 µM (inactive) |  |
| OC12c3ccccc3C1CCCCC2N1CCCC1 (configuration not stated) | > 100 µM (inactive) |  | > 100 µM (inactive) |  | > 100 µM (inactive) | > 100 µM (inactive) | > 100 µM (inactive) | > 100 | > 100 µM (inactive) | > 100 µM (inactive) | > 100 µM (inactive) |  | > 100 µM (inactive) |  | > 100 µM (inactive) | > 100 µM (inactive) | > 100 µM (inactive) | > 100 µM (inactive) |
| Nc1c(C(=O)Nc2ccccc2)[n+]([O-])c2ccccc2[n+]1[O-] | 25.1 µM (inactive) | 5.6 µM (inactive) | 19.1 µM (inactive) | 15.6 µM (inactive) | 9.62 µM (inactive) | 25.9 µM (inactive) |  | 13.1 | 17.7 µM (inactive) | 18.7 µM (inactive) | > 10 µM (inactive) | 17.3 µM (inactive) | 20.9 µM (inactive) | 17.9 µM (inactive) | 14.3 µM (inactive) | 13 µM (inactive) | 17.9 µM (inactive) |  |
| C[C@@H](NC1CCC[C@H]1O)c1ccccc1 (some centres not stated) | > 100 µM (inactive) | > 100 µM (inactive) | > 100 µM (inactive) | > 100 µM (inactive) | > 100 µM (inactive) | > 100 µM (inactive) | > 100 µM (inactive) | > 100 | > 100 µM (inactive) | > 100 µM (inactive) | > 100 µM (inactive) | > 100 µM (inactive) | > 100 µM (inactive) |  | > 100 µM (inactive) | > 100 µM (inactive) | > 100 µM (inactive) |  |
| CCN(CC)CCCC(C)Nc1ccnc2ccc3nn(C)nc3c12 (configuration not stated) | 47.9 µM (inactive) | > 100 µM (inactive) | 25.1 µM (inactive) | 55 µM (inactive) |  | > 100 µM (inactive) | 26.2 µM (inactive) |  | 33 µM (inactive) | 25.3 µM (inactive) | 50.6 µM (inactive) |  | 44.7 µM (inactive) | 37.8 µM (inactive) | > 100 µM (inactive) | > 100 µM (inactive) | 36 µM (inactive) | 32.8 µM (inactive) |
| Cc1nc2ccccc2c(=O)n1/N=C(\N=N\c1ccc(Cl)cc1)c1ccc(N(C)C)cc1 | > 100 µM (inactive) | > 100 µM (inactive) | 81.5 µM (inactive) | 71.4 µM (inactive) | 38.9 µM (inactive) | > 100 µM (inactive) | 46.1 µM (inactive) | > 100 | > 100 µM (inactive) | 61.1 µM (inactive) |  |  | > 100 µM (inactive) | > 100 µM (inactive) | 54.6 µM (inactive) |  |  |  |
| C=C(CO)CC(/C=C(\C)CC/C=C(\C)CCl)OC(C)=O (configuration not stated) | > 100 µM (inactive) |  | > 100 µM (inactive) | > 100 µM (inactive) | > 100 µM (inactive) | > 100 µM (inactive) | > 100 µM (inactive) | > 100 | > 100 µM (inactive) | > 100 µM (inactive) |  | > 100 µM (inactive) | > 100 µM (inactive) | > 100 µM (inactive) | > 100 µM (inactive) | > 100 µM (inactive) |  |  |
